Key:
[1] = target: human D3 dopamine receptor (Homo sapiens (Human), UniProt P35462); assay: Radioligand binding (125I-IABN competition), D3; conditions: for Ki: 125I-IABN competition, HEK cell membranes expressing human D3; for D2/D3 (D3 selectivity ratio, D2 Ki/D3 Ki): calculated D2 Ki/D3 Ki
Method: (§1) The affinities of the target compounds were determined using radioligand binding experiments. […] Competition curves were modeled for a single site. Data from competition dose-response curves were analyzed using Tablecurve program (Jandel). IC50 values were converted to equilibrium dissociation constants (Ki values) using the Cheng and Prusoff correction.

[2] = target: human D2-long dopamine receptor (Homo sapiens (Human), UniProt P14416); assay: Radioligand binding (125I-IABN competition), D2; conditions: HEK cell membranes expressing human D2-long
Method: as §1

human D2-long dopamine receptor, sequence (P14416 whole entry): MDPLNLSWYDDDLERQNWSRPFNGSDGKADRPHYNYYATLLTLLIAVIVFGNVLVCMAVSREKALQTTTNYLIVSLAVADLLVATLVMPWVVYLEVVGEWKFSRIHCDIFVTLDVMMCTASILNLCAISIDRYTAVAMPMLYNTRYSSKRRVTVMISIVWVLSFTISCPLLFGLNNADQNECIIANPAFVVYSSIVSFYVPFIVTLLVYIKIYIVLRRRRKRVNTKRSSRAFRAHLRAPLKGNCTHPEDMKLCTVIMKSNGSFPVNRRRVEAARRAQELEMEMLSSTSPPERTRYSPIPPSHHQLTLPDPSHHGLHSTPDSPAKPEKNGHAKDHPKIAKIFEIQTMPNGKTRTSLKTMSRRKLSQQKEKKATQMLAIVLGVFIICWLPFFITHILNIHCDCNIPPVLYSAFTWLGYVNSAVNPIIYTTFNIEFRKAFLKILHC
human D3 dopamine receptor, sequence (P35462 whole entry): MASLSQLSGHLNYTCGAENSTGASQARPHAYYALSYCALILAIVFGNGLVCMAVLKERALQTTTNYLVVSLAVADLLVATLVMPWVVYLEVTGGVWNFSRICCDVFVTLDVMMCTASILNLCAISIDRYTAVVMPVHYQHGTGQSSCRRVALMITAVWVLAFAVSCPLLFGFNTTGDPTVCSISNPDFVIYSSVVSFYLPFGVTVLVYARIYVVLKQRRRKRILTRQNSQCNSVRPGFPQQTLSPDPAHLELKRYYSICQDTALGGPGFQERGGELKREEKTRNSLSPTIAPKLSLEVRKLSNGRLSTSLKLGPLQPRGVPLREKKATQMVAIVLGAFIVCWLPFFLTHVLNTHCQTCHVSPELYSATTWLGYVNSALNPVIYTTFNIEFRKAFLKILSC

Row | Structure (SMILES) | Ki [1] [µM] | D2/D3 (D3 selectivity ratio, D2 Ki/D3 Ki) [1] | Ki [2] [µM]
1 | CC(C)(C)c1cc(N2CCN(CCCCNC(=O)N3CCN(c4ccccc4)CC3)CC2)cc(C(C)(C)C)c1 [Compound 86, N-(4-(4-(3,5-Di-tert-butylphenyl)piperazin-1-yl)butyl)-4-phenylpiperazine-1-carboxamide] | 0.11 ± 0.0116 | 17 | 1.85 ± 0.197
2 | CC(C)(C)c1nc(N2CCN(CCCCNC(=O)N3CCc4[nH]c5ccc(C(F)(F)F)cc5c4C3)CC2)cc(C(F)(F)F)n1 [Compound 93, N-(4-(4-(2-(tert-Butyl)-6-(trifluoromethyl)pyrimidin-4-yl)piperazin-1-yl)butyl)-8-(trifluoromethyl)-3,4-dihydro-1H-pyrido[4,3-b]indole-2(5H)-carboxamide] | 0.0848 ± 0.0213 | 7 | 0.56 ± 0.053
3 | CC(C)(C)c1nc(N2CCN(CCCCNC(=O)N3CCc4ccccc43)CC2)cc(C(F)(F)F)n1 [Compound 71, N-(4-(4-(2-(tert-Butyl)-6-(trifluoromethyl)pyrimidin-4-yl)piperazin-1-yl)butyl)indoline-1-carboxamide] | 0.0274 ± 0.0038 | 10 | 0.281 ± 0.0465
4 | CC(C)(C)c1cc(N2CCN(CCCCNC(=O)N3CCc4[nH]c5ccccc5c4C3)CC2)cc(C(C)(C)C)c1 [Compound 97, N-(4-(4-(3,5-Di-tert-butylphenyl)piperazin-1-yl)butyl)-3,4-dihydro-1H-pyrido[4,3-b]indole-2(5H)-carboxamide] | 0.245 ± 0.0464 | 10 | 2.44 ± 0.175
5 | CC(C)(C)c1nc(N2CCN(CCCCNC(=O)N3CCC(Oc4ccccc4)CC3)CC2)cc(C(F)(F)F)n1 [Compound 51, N-(4-(4-(2-(tert-Butyl)-6-(trifluoromethyl)pyrimidin-4-yl)piperazin-1-yl)butyl)-4-phenoxypiperidine-1-carboxamide] | 0.0441 ± 0.0081 | 29 | 1.29 ± 0.248
6 | COc1ccc2[nH]c3c(c2c1)CN(C(=O)NCCCCN1CCN(c2cc(C(C)(C)C)nc(C)n2)CC1)CC3 [Compound 96, N-(4-(4-(6-(tert-Butyl)-2-methylpyrimidin-4-yl)piperazin-1-yl)butyl)-8-methoxy-3,4-dihydro-1H-pyrido[4,3-b]indole-2(5H)-carboxamide] | 0.0749 ± 0.015 | >66 | > 5
7 | CC(C)(C)c1nc(N2CCN(CCCCNC(=O)N3CCN(c4ccccc4)C(=O)C3)CC2)cc(C(F)(F)F)n1 [Compound 102, N-(4-(4-(2-(tert-Butyl)-6-(trifluoromethyl)pyrimidin-4-yl)piperazin-1-yl)butyl)-3-oxo-4-phenylpiperazine-1-carboxamide] | 0.0192 | 50 | 0.962
8 | Cc1ccc2[nH]c3c(c2c1)CN(C(=O)NCCCCN1CCN(c2cc(C(C)(C)C)nc(C)n2)CC1)CC3 [Compound 94, N-(4-(4-(6-(tert-Butyl)-2-methylpyrimidin-4-yl)piperazin-1-yl)butyl)-8-methyl-3,4-dihydro-1H-pyrido[4,3-b]indole-2(5H)-carboxamide] | 0.219 ± 0.0238 | 25 | 5.49 ± 1.15
9 | CC(C)(C)c1nc(N2CCN(CCCCNC(=O)N3CCc4[nH]c5ccc(C#N)cc5c4C3)CC2)cc(C(F)(F)F)n1 [Compound 54, N-(4-(4-(2-(tert-Butyl)-6-(trifluoromethyl)pyrimidin-4-yl)piperazin-1-yl)butyl)-8-cyano-3,4-dihydro-1H-pyrido[4,3-b]indole-2(5H)-carboxamide] | 0.0403 ± 0.0072 | 26 | 1.05 ± 0.149
10 | CC(C)(C)c1nc(N2CCN(CCCCNC(=O)N3CCc4ccccc4C3)CC2)cc(C(F)(F)F)n1 [Compound 41, N-(4-(4-(2-(tert-Butyl)-6-(trifluoromethyl)pyrimidin-4-yl)piperazin-1-yl)butyl)-3,4-dihydroisoquinoline-2(1H)-carboxamide] | 0.0229 ± 0.005 | 21 | 0.49 ± 0.07
11 | O=C(NCCCCN1CCN(c2ccc3ccccc3n2)CC1)N1CCN(c2ccccc2)CC1 [Compound 84, 4-Phenyl-N-(4-(4-(quinolin-2-yl)piperazin-1-yl)butyl)piperazine-1-carboxamide] | 0.0957 ± 0.0146 | 27 | 2.61 ± 0.0791
12 | CC(C)(C)c1nc(N2CCN(CCCCNC(=O)N3CCN(c4ccc(C#N)cc4)CC3)CC2)cc(C(F)(F)F)n1 [Compound 59, N-(4-(4-(2-(tert-Butyl)-6-(trifluoromethyl)pyrimidin-4-yl)piperazin-1-yl)butyl)-4-(4-cyanophenyl)piperazine-1-carboxamide] | 0.0194 ± 0.0041 | 18 | 0.342 ± 0.022
13 | Cc1ccc(N2CCN(C(=O)NCCCCN3CCN(c4cc(C(F)(F)F)nc(C(C)(C)C)n4)CC3)CC2)cc1 [Compound 23, N-(4-(4-(2-(tert-Butyl)-6-(trifluoromethyl)pyrimidin-4-yl)piperazin-1-yl)butyl)-4-(p-tolyl)piperazine-1-carboxamide] | 0.0228 ± 0.0042 | 35 | 0.802 ± 0.179
14 | CC(C)(C)c1nc(N2CCN(CCCCNC(=O)c3cn4ccccc4n3)CC2)c2ccccc2n1 [Compound 123, N-(4-(4-(2-(tert-Butyl)quinazolin-4-yl)piperazin-1-yl)butyl)imidazo[1,2-a]pyridine-2-carboxamide] | 0.0782 ± 0.0192 | – | 1.45 ± 0.275
15 | CC(C)(C)c1nc(N2CCN(CCCCNC(=O)N3CCc4[nH]c5ccccc5c4C3)CC2)cc(C(F)(F)F)n1 [Compound 89, N-(4-(4-(2-(tert-Butyl)-6-(trifluoromethyl)pyrimidin-4-yl)piperazin-1-yl)butyl)-3,4-dihydro-1H-pyrido[4,3-b]indole-2(5H)-carboxamide] | 0.11 ± 0.0216 | 11 | 1.18 ± 0.18
16 | CC(C)(C)c1nc(N2CCN(CCCCNC(=O)N3CCN(c4ccc(C(F)(F)F)cc4)CC3)CC2)cc(C(F)(F)F)n1 [Compound 28, N-(4-(4-(2-(tert-Butyl)-6-(trifluoromethyl)pyrimidin-4-yl)piperazin-1-yl)butyl)-4-(4-(trifluoromethyl)phenyl)piperazine-1-carboxamide] | 0.0194 ± 0.0048 | 22 | 0.428 ± 0.102
17 | CC(C)(C)c1nc(N2CCN(CCCCNC(=O)N3CCN(c4cc(C#N)cc(C(F)(F)F)c4)CC3)CC2)cc(C(F)(F)F)n1 [Compound 61, N-(4-(4-(2-(tert-Butyl)-6-(trifluoromethyl)pyrimidin-4-yl)piperazin-1-yl)butyl)-4-(3-cyano-5-(trifluoromethyl)phenyl)piperazine-1-carboxamide] | 0.048 ± 0.0108 | 19 | 0.896 ± 0.193

Continued, values first:

Row | Ki [1] [µM] | D2/D3 (D3 selectivity ratio, D2 Ki/D3 Ki) [1] | Ki [2] [µM] | Structure (SMILES)
18 | 0.0116 ± 0.0009 | 48 | 0.557 ± 0.0795 | COc1ccc(N2CCN(C(=O)NCCCCN3CCN(c4cc(C(F)(F)F)nc(C(C)(C)C)n4)CC3)CC2)cc1 [Compound 21, N-(4-(4-(2-(tert-Butyl)-6-(trifluoromethyl)pyrimidin-4-yl)piperazin-1-yl)butyl)-4-(4-methoxyphenyl)piperazine-1-carboxamide]
19 | 0.0192 ± 0.0036 | 19 | 0.359 ± 0.0458 | CC(C)(C)c1nc(N2CCN(CCCCNC(=O)N3CCN(c4ccnc5cc(Cl)ccc45)CC3)CC2)cc(C(F)(F)F)n1 [Compound 63, N-(4-(4-(2-(tert-Butyl)-6-(trifluoromethyl)pyrimidin-4-yl)piperazin-1-yl)butyl)-4-(7-chloroquinolin-4-yl)piperazine-1-carboxamide]
20 | 0.0184 ± 0.0026 | 33 | 0.603 ± 0.104 | CC(C)(C)c1nc(N2CCN(CCCCNC(=O)N3CCC(Cc4ccccc4)CC3)CC2)cc(C(F)(F)F)n1 [Compound 50, 4-Benzyl-N-(4-(4-(2-(tert-butyl)-6-(trifluoromethyl)pyrimidin-4-yl)piperazin-1-yl)butyl)piperidine-1-carboxamide]
21 | 0.0151 ± 0.0042 | 22 | 0.337 ± 0.0678 | CC(C)(C)c1cc(N2CCN(CCCCNC(=O)N3CCN(c4ccccc4)CC3)CC2)nc(C(C)(C)C)n1 [Compound 10, N-(4-(4-(2,6-Di-tert-butylpyrimidin-4-yl)piperazin-1-yl)butyl)-4-phenylpiperazine-1-carboxamide]
22 | 0.0023 ± 0.0003 | 281 | 0.646 ± 0.0015 | CC(C)(C)c1nc(N2CCN(CCCCNC(=O)N3CCc4ccccc4CC3)CC2)cc(C(F)(F)F)n1 [Compound 42, N-(4-(4-(2-(tert-Butyl)-6-(trifluoromethyl)pyrimidin-4-yl)piperazin-1-yl)butyl)-4,5-dihydro-1H-benzo[d]azepine-3(2H)-carboxamide]
23 | 0.0086 ± 0.0018 | 54 | 0.463 ± 0.0551 | CC(C)(C)c1nc(N2CCN(CCCCNC(=O)N3CCN(c4cnccn4)CC3)CC2)cc(C(F)(F)F)n1 [Compound 33, N-(4-(4-(2-(tert-Butyl)-6-(trifluoromethyl)pyrimidin-4-yl)piperazin-1-yl)butyl)-4-(pyrazin-2-yl)piperazine-1-carboxamide]
24 | 0.013 ± 0.0007 | 58 | 0.762 ± 0.159 | COc1cccc(N2CCN(C(=O)NCCCCN3CCN(c4cc(C(F)(F)F)nc(C(C)(C)C)n4)CC3)CC2)c1 [Compound 20, N-(4-(4-(2-(tert-Butyl)-6-(trifluoromethyl)pyrimidin-4-yl)piperazin-1-yl)butyl)-4-(3-methoxyphenyl)piperazine-1-carboxamide]
25 | 0.0096 ± 0.0022 | 13 | 0.125 ± 0.0253 | CC(C)N1CCN(C(=O)NCCCCN2CCN(c3cc(C(F)(F)F)nc(C(C)(C)C)n3)CC2)CC1 [Compound 66, N-(4-(4-(2-(tert-Butyl)-6-(trifluoromethyl)pyrimidin-4-yl)piperazin-1-yl)butyl)-4-isopropylpiperazine-1-carboxamide]
